From patent US10428080B2, “TBK/IKK inhibitor compounds and uses thereof” (Merck Patent GmbH, priority 2015, dated 2019)

What was measured:
[1] = target: T1, TBK1 (Homo sapiens, UniProt Q9UHD2); test: TBK Biochemical Assay; settings: read-out: TBK1 IC50
T1 sequence (Q9UHD2 1-729): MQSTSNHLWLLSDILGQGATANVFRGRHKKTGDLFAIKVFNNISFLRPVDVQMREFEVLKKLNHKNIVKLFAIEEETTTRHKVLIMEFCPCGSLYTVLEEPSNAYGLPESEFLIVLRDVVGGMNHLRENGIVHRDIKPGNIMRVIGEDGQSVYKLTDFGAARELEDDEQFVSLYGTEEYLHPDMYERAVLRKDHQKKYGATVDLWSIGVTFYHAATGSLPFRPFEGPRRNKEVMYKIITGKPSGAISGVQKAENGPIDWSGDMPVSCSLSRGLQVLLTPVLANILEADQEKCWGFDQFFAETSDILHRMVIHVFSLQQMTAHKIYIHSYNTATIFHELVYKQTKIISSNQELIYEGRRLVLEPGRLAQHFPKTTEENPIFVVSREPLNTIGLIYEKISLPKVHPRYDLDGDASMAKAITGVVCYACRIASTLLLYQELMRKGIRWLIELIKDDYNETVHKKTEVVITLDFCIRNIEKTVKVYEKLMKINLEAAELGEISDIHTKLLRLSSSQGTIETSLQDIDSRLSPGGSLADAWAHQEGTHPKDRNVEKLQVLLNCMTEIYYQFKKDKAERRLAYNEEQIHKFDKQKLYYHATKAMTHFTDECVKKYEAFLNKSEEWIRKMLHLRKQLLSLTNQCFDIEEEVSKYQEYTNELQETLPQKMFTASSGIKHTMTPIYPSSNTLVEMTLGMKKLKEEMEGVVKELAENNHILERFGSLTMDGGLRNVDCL
Outline: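 Caliper LabChip mobility-shift readout of substrate and product after 90 min of TBK1 reaction at 25° C and stop-buffer addition. Compounds tested in 1:4 serial dilution over 10 points from 30 uM final at 1% DMSO; staurosporine 10 uM final defines full inhibition.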

[2] = target: T2, IKKε (Homo sapiens, UniProt Q14164); test: IKKe Biochemical Assay; settings: read-out: IKKε IC50
T2 sequence (Q14164 1-716): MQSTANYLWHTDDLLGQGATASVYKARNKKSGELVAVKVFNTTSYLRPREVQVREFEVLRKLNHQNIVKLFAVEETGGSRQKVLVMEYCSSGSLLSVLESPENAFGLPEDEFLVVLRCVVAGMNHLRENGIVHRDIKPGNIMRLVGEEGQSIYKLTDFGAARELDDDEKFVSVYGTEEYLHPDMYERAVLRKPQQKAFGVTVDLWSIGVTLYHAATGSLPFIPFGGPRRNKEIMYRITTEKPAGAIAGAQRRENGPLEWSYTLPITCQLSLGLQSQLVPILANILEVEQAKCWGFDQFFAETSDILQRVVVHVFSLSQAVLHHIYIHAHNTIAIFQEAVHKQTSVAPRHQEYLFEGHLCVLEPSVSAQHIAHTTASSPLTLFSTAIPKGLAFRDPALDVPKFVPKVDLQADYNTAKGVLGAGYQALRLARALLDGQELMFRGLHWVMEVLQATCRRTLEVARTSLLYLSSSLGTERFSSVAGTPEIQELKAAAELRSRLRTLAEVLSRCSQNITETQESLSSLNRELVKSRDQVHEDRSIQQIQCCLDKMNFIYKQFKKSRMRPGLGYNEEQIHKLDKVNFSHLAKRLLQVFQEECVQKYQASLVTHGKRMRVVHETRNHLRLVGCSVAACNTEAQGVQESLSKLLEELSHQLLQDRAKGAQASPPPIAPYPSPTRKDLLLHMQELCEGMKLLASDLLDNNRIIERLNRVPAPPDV
Outline: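 Activity was measured as mobility-shift separation of phosphorylated from unphosphorylated substrate on a LabChip EZ Reader. Compound was titrated from 30 uM final in 10 points, 1:4 steps, with 1% DMSO, and enzyme plus substrate reacted 90 min at 25° C before stop buffer. Control wells held 10 uM staurosporine.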

[3] = tested on: phosphorylation of the IRF-3 protein in MDA-MB-468 cells; test: pIRF3 immunocytochemistry cell based assay; settings: Homo sapiens; MDA-MB-468 cells, Poly(I:C) stimulation; read-out: pIRF3 IC50
Outline: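 After 2 h stimulation with Poly(I:C) (10 ug/ml), following 1 h compound pre-treatment (10-point, 3-fold dilution, top 10 uM), MDA-MB-468 cells were fixed and stained with anti-pIRF3 antibody. pIRF3 fluorescence was normalized to PI staining or cell count on an Acumen cytometer. IC50 curves were derived from this.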

Row | Structure (SMILES) | IC50 [1] [µM] | IC50 [2] [µM] | IC50 [3] [µM]
1 | COc1cc(C(=O)N(C)C)cnc1-c1cc2nccc(-c3ccc(OC4CCNC4)c(C#N)c3)c2o1 (stereo not drawn) [Compound 487, 6-{7-[3-Cyano-4-(pyrrolidin-3-yloxy)-phenyl]-furo[3,2-b]pyridin-2-yl}-5-methoxy-N,N-dimethyl-nicotinamide] | 0.1 to 1 | 0.1 to 1 | 0.1 to 1
2 | COc1cc(C(=O)NC2C3COCC32)ccc1-c1cc2nccc(-c3ccc(N4CC[C@@H](F)C4)c(C#N)c3)c2o1 (stereo partly drawn) [Compound 498] | 0.1 to 1 | < 0.1 | 0.1 to 1
3 | COc1cc(C(=O)NCC(C)(C)N(C)C)ccc1-c1cc2nccc(-c3ccc(NC4CCOCC4)c(C#N)c3)c2o1 [Compound 499, 4-{7-[3-Cyano-4-(tetrahydro-pyran-4-ylamino)-phenyl]-furo[3,2-b]pyridin-2-yl}-N-(2-dimethylamino-2-methyl-propyl)-3-methoxy-benzamide] | < 0.1 | < 0.1 | 0.1 to 1
4 | COc1cc(C(=O)NCC(C)(C)N(C)C)ccc1-c1cc2nccc(-c3ccc(OC4CCOCC4)c(C#N)c3)c2o1 [Compound 500, 4-{7-[3-Cyano-4-(tetrahydro-pyran-4-yloxy)-phenyl]-furo[3,2-b]pyridin-2-yl}-N-(2-dimethylamino-2-methyl-propyl)-3-methoxy-benzamide] | < 0.1 | < 0.1 | 0.1 to 1
5 | COc1cc(C(=O)N2CC3CN(C)CC3C2)ccc1-c1cc2nccc(-c3ccc(N4CC[C@@H](F)C4)c(C#N)c3)c2o1 (stereo partly drawn) [Compound 501] | < 0.1 | < 0.1 | 0.1 to 1
6 | COc1cc(C(=O)NC(C)(C)CN(C)C)ccc1-c1cc2nccc(-c3ccc(NC4C5COCC54)c(C#N)c3)c2o1 (stereo not drawn) [Compound 502, N-(2-dimethylamino-1,1-dimethyl-ethyl)-4-{7-[3-cyano-4-(3-oxa-bicyclo[3.1.0]hex-6-ylamino)-phenyl]-furo[3,2-b]pyridin-2-yl}-3-methoxy-benzamide] | < 0.1 | < 0.1 | 0.1 to 1
7 | COc1cc(C(=O)N2CC3CCC2CN3C)ccc1-c1cc2nccc(-c3ccc(OC4CCOCC4)c(C#N)c3)c2o1 (stereo not drawn) [Compound 503] | < 0.1 | < 0.1 | < 0.1
8 | COc1cc(C(=O)N2CC3COCC3C2)ccc1-c1cc2nccc(-c3ccc(OC4CCOCC4)c(C#N)c3)c2o1 (stereo not drawn) [Compound 504] | < 0.1 | < 0.1 | 0.1 to 1
9 | COc1cc(C(=O)NC(C)(C)CCN(C)C)ccc1-c1cc2nccc(-c3ccc(OC4CCOCC4)c(C#N)c3)c2o1 [Compound 505, 4-{7-[3-Cyano-4-(tetrahydro-pyran-4-yloxy)-phenyl]-furo[3,2-b]pyridin-2-yl}-N-(3-dimethylamino-1,1-dimethyl-propyl)-3-methoxy-benzamide] | < 0.1 | < 0.1 | 0.1 to 1
10 | COc1cc(C(=O)NCC(C)(C)CN(C)C)ccc1-c1cc2nccc(-c3ccc(OC4CCOCC4)c(C#N)c3)c2o1 [Compound 506, 4-{7-[3-Cyano-4-(tetrahydro-pyran-4-yloxy)-phenyl]-furo[3,2-b]pyridin-2-yl}-N-(3-dimethylamino-2,2-dimethyl-propyl)-3-methoxy-benzamide] | < 0.1 | < 0.1 | 0.1 to 1
11 | COc1cc(C(=O)N2C[C@@H]3C[C@H]2CN3C)ccc1-c1cc2nccc(-c3ccc(OC4CCOCC4)c(C#N)c3)c2o1 [Compound 508] | < 0.1 | < 0.1 | < 0.1
12 | COc1cc(C(=O)N2C3CCCC2CC3)ccc1-c1cc2nccc(-c3ccc(OC4CCOCC4)c(C#N)c3)c2o1 [Compound 509] | < 0.1 | < 0.1 | 0.1 to 1
13 | COc1cc(C(=O)N2CC3CCC2CN3C)ccc1-c1cc2nccc(-c3ccc(NC4CCOCC4)c(C#N)c3)c2o1 (stereo not drawn) [Compound 510] | < 0.1 | < 0.1 | < 0.1
14 | COc1cc(C(=O)N2CC3COCC3C2)ccc1-c1cc2nccc(-c3ccc(NC4CCOCC4)c(C#N)c3)c2o1 (stereo not drawn) [Compound 513] | < 0.1 | < 0.1 | < 0.1
15 | COc1cc(C(=O)NC(C)(C)CCN(C)C)ccc1-c1cc2nccc(-c3ccc(NC4CCOCC4)c(C#N)c3)c2o1 [Compound 514, 4-{7-[3-Cyano-4-(tetrahydro-pyran-4-ylamino)-phenyl]-furo[3,2-b]pyridin-2-yl}-N-(3-dimethylamino-1,1-dimethyl-propyl)-3-methoxy-benzamide] | < 0.1 | < 0.1 | < 0.1
16 | COc1cc(C(=O)N2C[C@@H]3C[C@H]2CN3C)ccc1-c1cc2nccc(-c3ccc(NC4CCOCC4)c(C#N)c3)c2o1 [Compound 515] | < 0.1 | < 0.1 | < 0.1

The remaining lines, values ahead:

Row | IC50 [1] [µM] | IC50 [2] [µM] | IC50 [3] [µM] | Structure (SMILES)
17 | < 0.1 | < 0.1 | < 0.1 | COc1cc(C(=O)N(C)C)cnc1-c1cc2nccc(-c3ccc(OC4CCOCC4F)c(C#N)c3)c2o1 (stereo not drawn) [Compound 486, 6-{7-[3-Cyano-4-(3-fluoro-tetrahydro-pyran-4-yloxy)-phenyl]-furo[3,2-b]pyridin-2-yl}-5-methoxy-N,N-dimethyl-nicotinamide]
18 | < 0.1 | < 0.1 | 0.1 to 1 | COc1cc(C(=O)N(C)C)cnc1-c1cc2nccc(-c3ccc(N4CCC(F)C4)c(C#N)n3)c2o1 (stereo not drawn) [Compound 488, 2-{7-[6-Cyano-6-5-(3-fluoro-pyrrolidin-1-yl)-pyridin-3-yl]-furo[3,2-b]pyridin-2-yl}-5-methoxy-N,N-dimethyl-nicotinamide]
19 | < 0.1 | < 0.1 | 0.1 to 1 | COc1cc(C(=O)N(C)C)cnc1-c1cc2nccc(-c3cnc(N4CCC(F)C4)c(C#N)c3)c2o1 (stereo not drawn) [Compound 489]
20 | < 0.1 | < 0.1 | 0.1 to 1 | COc1cc(C(=O)N2CCC(O)C2)ccc1-c1cc2nccc(-c3ccc(OC4CCOCC4)c(C#N)c3)c2o1 (stereo not drawn) [Compound 492, 5-{2-[4-(3-Hydroxy-pyrrolidine-1-carbonyl)-2-methoxy-phenyl]-furo[3,2-b]pyridin-7-yl}-2-(tetrahydro-pyran-4-yloxy)-benzonitrile]
21 | < 0.1 | < 0.1 | 0.1 to 1 | COc1cc(C(=O)N[C@H]2CCN(C)C2)ccc1-c1cc2nccc(-c3ccc(OC4CCOCC4)c(C#N)c3)c2o1 [Compound 493, 5-{2-[4-(N—((S)-methyl-pyrrolidin-3-yl)-1-carbonyl)-2-methoxy-phenyl]-furo[3,2-b]pyridin-7-yl}-2-(tetrahydro-pyran-4-yloxy)-benzonitrile]
22 | < 0.1 | < 0.1 | 0.1 to 1 | COc1cc(C(=O)N[C@@H]2CCN(C)C2)ccc1-c1cc2nccc(-c3ccc(OC4CCOCC4)c(C#N)c3)c2o1 [Compound 494, 5-{2-[4-(N—((R)-methyl-pyrrolidin-3-yl)-1-carbonyl)-2-methoxy-phenyl]-furo[3,2-b]pyridin-7-yl}-2-(tetrahydro-pyran-4-yloxy)-benzonitrile]
23 | < 0.1 | < 0.1 | 0.1 to 1 | COc1cc(C(=O)N2CC(O)C2)ccc1-c1cc2nccc(-c3ccc(N4CC[C@@H](F)C4)c(C#N)c3)c2o1 [Compound 497, 2-((R)-3-Fluoro-pyrrolidin-1-yl)-5-{2-[4-(3-hydroxy-azetidine-1-carbonyl)-2-methoxy-phenyl]-furo[3,2-b]pyridin-7-yl}-benzonitrile]
